# Measured values as given in patent US12440475B2, “Hodgkin lymphoma therapy” (priority 2016, dated 2025).
# How the values were obtained:
# [1] = system: L1236; assay: Combination with Brentuximab Vedotin, % survival, L1236; type: cell-based, human; settings: EDO-S101 1.56 μM (sub-IC50) with Brentuximab Vedotin 3.12 μg/ml
# Protocol: 1.56 μM of EDO-S101 was administered to two Hodgkin lymphoma cell lines, the bendamustine naïve cell line L1236 and the bendamustine resistant cell line R100. In a second experiment, Brentuximab Vedotin was administered at a concentration of 3.12 μg/ml to the L1236 cell line and at a concentration of 0.39 μg/ml to the R100 cell line. Finally, in a third experiment EDO-S101 and Brentuximab Vedotin were administered in combination to each of the two cell lines at the same concentrations that they were administered in the monotherapy experiments.
# [2] = system: L428s; assay: Clonogenic survival in methylcellulose, L428s; type: cell-based, human; settings: very low doses (0.1 and 0.5 μmol)
# Protocol: (§1) In all examples, the human Hodgkin lymphoma-derived cell lines L428, L428-c, KMH2, L591, L540, L1236, HDLM2 and SUP-HD were obtained from Dr Steffen Junker (Aarhus University Denmark). All cell lines were cultured in Gibco RPMI 1640 medium supplemented with Glutamax, 10% FBS and antibiotics at 37° C. […] The immunophenotype, P53 status and MSI characterization of the Hodgkin lymphoma cell lines was determined using anti-CD30, CD15, CD20 and CD14 antibodies.
# (§2) This test was performed on four Hodgkin lymphoma cell lines (L428, L428s, KMH2 and L540). Each was cultured with EDO-S101 at doses of 0, 0.1, 0.5, 1, 10 and 20 μmol in DMSO. The cell lines were cultured in methylcellulose (Stem cell Technologies) at a concentration of 10^5/ml at 37° C. and 5% CO2. The surviving fraction was determined by measuring the viability of colonies generated before and after exposure. Only colonies with more than 50 cells were counted. Each data point represents the average and SD from three independent experiments performed in triplicate.
# [3] = system: R100; assay: ATM/ATR transcripts, R100; type: cell-based, human; settings: bendamustine resistant R100; EDO-S101 alone
# [4] = system: CD14 cells; assay: CD14-positive cells by flow cytometry in xenografted NSG mice; type: in vivo
# Protocol: Cells were gated to exclude apoptotic or necrotic cells and sorted into CD30−/CD15− and CD30+ and CD15+/CD30+ fractions by gating on the lowest and highest 5% PE-expressing cells, respectively. Following sorting, the CD30−/CD15− cell fractions were analyzed using a FACScan flow cytometer (Becton Dickinson) and found to be more than 98% pure. For phenotypic analyses of cell lines or sorted cells, cells were prepared as described, and then stained with mouse anti-human CD30-phycoerthrin (PE), CD15—fluorescein isothyocyanate (FITC), CD14-APC-cyanine 7 (Cy7) and CD45-APC (all antibodies from BD PharMingen, San Diego, CA). […] Cells were subsequently analysed using a FACS LSRII (Becton Dickinson, Franklin Lakes, NJ). […]
# Novel biomarkers CD68 and CD14 which are expressed by tumour associated macrophages and myeloid derived suppressor cells respectively in the microenvironment have recently been reported to affect the prognosis of Hodgkin lymphoma (Haematologica, 2011 February; 96(2): 186-189). The presence of the CD14-positive cells following administration of a single dose of EDO-S101 (60 mg/kg or 80 mg/kg) and after two administrations of EDO-S101 at 60 mg/kg was evaluated using flow cytometry with anti CD14 antibodies.
# [5] = system: L540; assay: Clonogenic survival in methylcellulose, L540; type: cell-based, human; settings: any dose (0.1, 0.5, 1, 10 and 20 μmol)
# Protocol: as §1, §2
# [6] = system: L1236-R100, L1236/DMSO and L1236; assay: Viable cell count and IC50, three L1236 cell lines; type: cell-based; settings: Homo sapiens, L-1236; all cell lines tested, including R100
# Protocol: (§3) • (a) Five Hodgkin lymphoma cell lines (KMH2, HDML2, L540, L1236 and L426) were cultured separately in the presence of bendamustine, vorinostat and EDO-S101 dissolved in DMSO at 37° C. L1236-derived Hodgkin lymphoma cell lines were selected as they have an acquired stable resistance to bendamustine (R100) or an ability to display continuous growth upon extended exposure to sub-lethal concentrations of bendamustine (R25, R50 and R75). A detailed description of the L1236-R Hodgkin lymphoma cell lines is disclosed in De Filippi et al, ASH 2015, Abstract. #2479. In these tests, the L1236-100R bendamustine resistant strain was used. […] Control cells were cultured in the same final concentration of DMSO. The number of viable cells was assessed at 24, 48 and 72 hours through a Countess™ automated cell counter (Invitrogen), each experiment being repeated three times and the results given being the mean of the three results±SD.
# [7] = system: L1236-R100; assay: Viable cell count and IC50, bendamustine-resistant cell line; type: cell-based, human
# Protocol: as §3
structure (smiles),measurement,setting,value
Cn1c(CCCCCCC(=O)NO)nc2cc(N(CCCl)CCCl)ccc21 [EDO-S101],cell death in combination with Brentuximab Vedotin,[1],synergistic
same,clones observed (clonogenic survival),[2],only macrophagic clones being observed
same,ATM/ATR transcripts,[3],correct the constitutive ATM/ATR unbalance by upregulating ATR and downregulating ATM transcripts
same,"frequency of CD14 cells, untreated versus treated mice","[4]; 60 mg/kg, 80 mg/kg, 2×60 mg/kg",significantly higher frequency of CD14 cells in untreated mice compared to treated mice
same,"frequency of CD14 cells, 2×60 mg/kg versus 80 mg/kg","[4]; mouse, in vivo",higher frequency following treatment with 2×60 mg/kg than treatment with a single dose of 80 mg/kg
same,clones observed (clonogenic survival),[5],No clone was observed
same,IC50,[6],1000 to 3000 nM
same,viable cells,"[7]; R100, 48 hours after treatment with 50 μM",no viable cells
same,anti-proliferative activity compared with vorinostat,[7]; bendamustine-resistant cell line R100,greater than that of vorinostat
